The text below walks through data of PubChem BioAssay (NCI).

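Method: 48-hour compound exposure of cells in 96-well plates, five concentrations, linear interpolation of endpoints. GI50 marks 50% less growth. TGI is the concentration that stops growth completely.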

The test system of the first assay is SR leukemia. The assay is described as follows: growth of human tumour cells (NCI), 48 h.
On to `CCC[CH2][Sn]1([CH2]CCC)[O]C(=O)c2cccnc2[O]1`, for which the GI50 is 1.65 µM and the TGI was determined as 6.19 µM.
Consider `COC1CC(OS(=O)(=O)c2ccc([N+](=O)[O-])cc2)C(OC(=O)c2ccccc2)C(C)O1` (stereo not drawn), for which the TGI is > 100 µM.
The same measure, in the same setting: with `CCOc1ccccc1N1C(=O)C(=O)C(c2nc3ccccc3o2)C(=O)C1=O` the figure was > 100 µM; with `CCS(CC)(CC)CC1CCCC2=CCC(P(=O)(c3ccccc3)c3ccccc3)CC21` (stereo not drawn), 25.5 µM.
In the case of `CC(C)(C)n1cc(-c2ccnc(NCCCNS(=O)(=O)c3ccc(C(F)(F)F)cc3)c2)c(-c2cccc(O)c2)n1`, the GI50 is 2.21 µM and the TGI came to 10.5 µM.
`Cn1cc(C(=O)NCCC(=N)N)cc1NC(=O)C1=[N+](C)C=C(NC(=O)c2cccc(C(=O)NC3=CC(C(=O)Nc4cc(C(=O)NCCC(=N)N)cn4C)=[N+](C)C3)c2)C1`: the TGI is > 100 µM.

A further assay relates to OVCAR-4 ovarian. The assay is described as follows: growth of human tumour cells (NCI), 48 h.
On to `CCN(CC)c1c(C(=O)/C=C/c2ccc(OC)cc2)c(-c2ccccc2)nn(C)c1=O`, for which the TGI was found to be 58 µM.
The same measure, in the same setting: the value for `CN1C(=Nc2ccccc2)SC1=Nc1ccccc1` was > 100 µM; that for `Oc1ccccc1/C=C/c1csnn1` was > 100 µM; that for `CP1(=O)CCCCC1` was > 100 µM.
The same measure, in the same setting: the value for `Cc1ccc(S(=O)(=O)OC2CSS(=O)CC2OS(=O)(=O)c2ccc(C)cc2)cc1` (stereo not drawn) was 32.6 µM.
For `COc1cc2c(cc1C)NC(=O)/C2=C/c1ccccn1`, the GI50 is 8.02 µM and the TGI is > 100 µM.
The compound `O=[N+]([O-])c1cc(C(F)(F)F)cc([N+](=O)[O-])c1CCl` returned a TGI of 3.69 µM.
For `COc1cc2ccc(/C=C\[N+](=O)[O-])cc2cc1OC`, the TGI came out at 7.56 µM.
On the same count and under the same terms, with `COc1cc([C@@H]2OC[C@@H]3C(c4cc(OC)c5c(c4)OCO5)OC[C@@H]32)cc(OC)c1OC` (stereo partly drawn) the figure was > 100 µM.
As for `Oc1c(C(Nc2cccc3cccnc23)c2ccccc2)ccc2cccnc12` (stereo not drawn), the TGI is > 100 µM.
In the case of `COc1ccc(/C(COc2ccc3c(=O)cc(-c4ccccc4)oc3c2)=N\O)cc1`, the GI50 was 21.5 µM and the TGI was > 41.5 µM.
Turning to `COc1ccc(Br)c(N/N=C2\CCCNC2=O)c1`, the TGI was > 100 µM.
With `COc1cc2c(c(OC)c1OC)-c1ccc(SC)c(=O)cc1C(CO)C2` (stereo not drawn), the GI50 is < 0.01 µM and the TGI is > 100 µM.
For `CC(C)C1CC[C@@H](C)C[C@@]1(O)CC(N)=O` (stereo partly drawn), the TGI was > 100 µM.
Turning to `CCC[CH2][Sn]1([CH2]CCC)[O]C(=O)c2cccnc2[O]1`, the GI50 was 1.65 µM and the TGI came out at 8.57 µM.
As to `COC1CC(OS(=O)(=O)c2ccc([N+](=O)[O-])cc2)C(OC(=O)c2ccccc2)C(C)O1` (stereo not drawn), the TGI was > 100 µM.
In turn, `CCOc1ccccc1N1C(=O)C(=O)C(c2nc3ccccc3o2)C(=O)C1=O` displayed a TGI of 45.7 µM.
Same read-out and setting: with `CCS(CC)(CC)CC1CCCC2=CCC(P(=O)(c3ccccc3)c3ccccc3)CC21` (stereo not drawn) the figure was 26 µM.
As for `CC(C)(C)n1cc(-c2ccnc(NCCCNS(=O)(=O)c3ccc(C(F)(F)F)cc3)c2)c(-c2cccc(O)c2)n1`, the GI50 was 2.29 µM and the TGI was determined as 5.25 µM.
Consider `Cn1cc(C(=O)NCCC(=N)N)cc1NC(=O)C1=[N+](C)C=C(NC(=O)c2cccc(C(=O)NC3=CC(C(=O)Nc4cc(C(=O)NCCC(=N)N)cn4C)=[N+](C)C3)c2)C1`, for which the TGI was > 100 µM.
For `C=C1C(=O)O[C@H]2[C@H]1CC/C(COC(=O)NCc1ccc(Cn3c(=O)sn(CCCl)c3=O)cc1)=C\CC[C@@]1(C)O[C@@H]21`, the GI50 is 1.92 µM and the TGI stood at 4.01 µM.
The matching figures for `COc1ccc2c(c1)c(=O)oc1cc(OC/C(C)=N\O)ccc12`: > 100 µM and > 100 µM.

In the next assay the test system is K-562 leukemia. The assay is described as follows: growth of human tumour cells (NCI), 48 h.
Compound `CCN(CC)c1c(C(=O)/C=C/c2ccc(OC)cc2)c(-c2ccccc2)nn(C)c1=O` had a TGI of 49.9 µM.
Regarding `CN1C(=Nc2ccccc2)SC1=Nc1ccccc1`, the TGI was > 100 µM.
Same read-out and setting: with `O=C(O)C(/C=C/c1ccccc1)c1ccccc1` (stereo not drawn) the figure was > 100 µM; with `Oc1ccccc1/C=C/c1csnn1`, > 100 µM; with `CP1(=O)CCCCC1`, > 100 µM.
Take `Cc1ccc(S(=O)(=O)OC2CSS(=O)CC2OS(=O)(=O)c2ccc(C)cc2)cc1` (stereo not drawn): the TGI stood at 21.1 µM.
As for `COc1cc2c(cc1C)NC(=O)/C2=C/c1ccccn1`, the GI50 is 2.71 µM and the TGI is > 100 µM.
The compound `O=[N+]([O-])c1cc(C(F)(F)F)cc([N+](=O)[O-])c1CCl` yielded a TGI of 1.11 µM.
Same read-out and setting: with `CCOC(=O)N1CCN(C=S)CC1` the figure was > 100 µM; with `COc1cc2ccc(/C=C\[N+](=O)[O-])cc2cc1OC`, > 24.6 µM; with `COc1cc([C@@H]2OC[C@@H]3C(c4cc(OC)c5c(c4)OCO5)OC[C@@H]32)cc(OC)c1OC` (stereo partly drawn), > 100 µM.
On the same count and under the same terms, the value for `Oc1c(C(Nc2cccc3cccnc23)c2ccccc2)ccc2cccnc12` (stereo not drawn) was > 100 µM.
For `COc1ccc(/C(COc2ccc3c(=O)cc(-c4ccccc4)oc3c2)=N\O)cc1`, the GI50 was 17.5 µM and the TGI is > 50 µM.
Take `COc1ccc(Br)c(N/N=C2\CCCNC2=O)c1`: the TGI was > 100 µM.
Take `COc1cc2c(c(OC)c1OC)-c1ccc(SC)c(=O)cc1C(CO)C2` (stereo not drawn): the GI50 was < 0.01 µM and the TGI is 23.7 µM.
`CC(C)C1CC[C@@H](C)C[C@@]1(O)CC(N)=O` (stereo partly drawn): the TGI is > 100 µM.
Take `CCC[CH2][Sn]1([CH2]CCC)[O]C(=O)c2cccnc2[O]1`: the GI50 was 1.85 µM and the TGI was found to be 6.01 µM.
Take `COC1CC(OS(=O)(=O)c2ccc([N+](=O)[O-])cc2)C(OC(=O)c2ccccc2)C(C)O1` (stereo not drawn): the TGI is > 100 µM.
On the same count and under the same terms, with `CCOc1ccccc1N1C(=O)C(=O)C(c2nc3ccccc3o2)C(=O)C1=O` the figure was > 100 µM; with `CCS(CC)(CC)CC1CCCC2=CCC(P(=O)(c3ccccc3)c3ccccc3)CC21` (stereo not drawn), 39.9 µM.
As for `CC(C)(C)n1cc(-c2ccnc(NCCCNS(=O)(=O)c3ccc(C(F)(F)F)cc3)c2)c(-c2cccc(O)c2)n1`, the GI50 was 2.1 µM and the TGI is > 100 µM.
As for `Cn1cc(C(=O)NCCC(=N)N)cc1NC(=O)C1=[N+](C)C=C(NC(=O)c2cccc(C(=O)NC3=CC(C(=O)Nc4cc(C(=O)NCCC(=N)N)cn4C)=[N+](C)C3)c2)C1`, the TGI is > 100 µM.
Turning to `C=C1C(=O)O[C@H]2[C@H]1CC/C(COC(=O)NCc1ccc(Cn3c(=O)sn(CCCl)c3=O)cc1)=C\CC[C@@]1(C)O[C@@H]21`, the GI50 was 2.07 µM and the TGI was determined as 5.63 µM.
In the same order, the values of `COc1ccc2c(c1)c(=O)oc1cc(OC/C(C)=N\O)ccc12` are > 100 µM and > 100 µM.
